Measurements reported in paper PMC12777568 (Antimicrobial Agents and Chemotherapy, 2025).
Read-outs that look alike come from different tables or passages of the source.

Key:
[1] = BIC plasma pharmacokinetics, Phase 1 open-label single-dose DDI study GS-US-380-3909 (B/F/TAF 50/200/25 mg with antacid or mineral supplements); type: in vivo, human; conditions: both sexes, human, plasma, oral; for AUC(0-t): BIC plasma AUClast; for Tmax: BIC plasma Tmax, median (Q1, Q3)
Protocol: Eligible participants were adult (18–45 years) males and non-pregnant, non-lactating females in good general health at a screening evaluation performed no more than 28 days before the first study dose. […] Full eligibility criteria are available in the supplement. All prescription and over-the-counter medications except vitamins, acetaminophen, ibuprofen, and hormonal contraceptives were not permitted during study participation. Three dosing cohorts were evaluated (Table 1). […] Vitamins and/or other supplements were not permitted on the dosing day. […] Participants received maximum-strength antacid oral suspension (four teaspoons; 20 mL; 1,600 mg aluminum hydroxide/1,600 mg magnesium hydroxide/160 mg simethicone; referred to as “aluminum/magnesium-containing antacid”) on Day 9, calcium carbonate (1,200 mg; 2 × 600 mg tablets) on Day 17, and ferrous fumarate (1 × 324 mg tablet) on Day 25. […] All samples were analyzed within the timeframe determined using frozen stability storage data. […] PK parameters were estimated using Phoenix WinNonlin software (Version 6.4, Pharsight Corporation, Princeton, NJ, USA) using standard noncompartmental analysis methods. […] The estimated 90% CIs were compared to a prespecified lack of DDI boundary of 70%–143%. […] A minimum of 12 evaluable participants in each cohort was calculated to be needed to reject the null hypothesis (i.e., the 90% CI for the GLSM ratio for each PK parameter was outside the prespecified boundary) with ≥90% power.

[2] = test system: HIV-1 integrase-DNA complexes; conditions: cited from earlier work

## O=C(NCc1c(F)cc(F)cc1F)c1cn2c(c(O)c1=O)C(=O)N1[C@H]3CC[C@H](C3)O[C@@H]1C2 [BIC, bictegravir]
[1]; BIC plasma AUCinf, mean (%CV), Cohort 2 fasted, B/F/TAF alone, N = 14
  AUC(0-inf): 133000 ng·h/mL
[1]; BIC plasma AUCinf, mean (%CV), Cohort 3, B/F/TAF alone (fasted), N = 14
  AUC(0-inf): 93700 ng·h/mL
[1]; BIC plasma AUCinf, mean (%CV), Cohort 3 fed, B/F/TAF + aluminum/magnesium-containing antacid simultaneous, N = 14
  AUC(0-inf): 50800 ng·h/mL
[1]; BIC plasma AUCinf, mean (%CV), Cohort 3 fed, B/F/TAF + calcium carbonate simultaneous, N = 14
  AUC(0-inf): 94800 ng·h/mL
[1]; BIC plasma AUCinf, mean (%CV), Cohort 3 fed, B/F/TAF + ferrous fumarate simultaneous, N = 14
  AUC(0-inf): 77300 ng·h/mL
[1]; mean (%CV), Cohort 1 fasted, B/F/TAF + aluminum/magnesium-containing antacid simultaneous, N = 14
  AUC(0-t): 26200 ng·h/mL
[1]; mean (%CV), Cohort 1 fasted, B/F/TAF + calcium carbonate simultaneous, N = 14
  AUC(0-t): 80400 ng·h/mL
[1]; mean (%CV), Cohort 1 fasted, B/F/TAF + ferrous fumarate simultaneous, N = 14
  AUC(0-t): 43400 ng·h/mL
[1]; mean (%CV), Cohort 1 fasted, B/F/TAF alone, N = 14
  AUC(0-t): 117000 ng·h/mL
[1]; mean (%CV), Cohort 2 fasted, B/F/TAF 2 hours after aluminum/magnesium-containing antacid, N = 13
  AUC(0-t): 63400 ng·h/mL
[1]; mean (%CV), Cohort 2 fasted, B/F/TAF 2 hours before aluminum/magnesium-containing antacid, N = 13
  AUC(0-t): 111000 ng·h/mL
[1]; mean (%CV), Cohort 2 fasted, B/F/TAF alone, N = 14
  AUC(0-t): 125000 ng·h/mL
[1]; mean (%CV), Cohort 3, B/F/TAF alone (fasted), N = 14
  AUC(0-t): 91200 ng·h/mL
[1]; mean (%CV), Cohort 3 fed, B/F/TAF + aluminum/magnesium-containing antacid simultaneous, N = 14
  AUC(0-t): 49200 ng·h/mL
[1]; mean (%CV), Cohort 3 fed, B/F/TAF + calcium carbonate simultaneous, N = 14
  AUC(0-t): 91500 ng·h/mL
[1]; mean (%CV), Cohort 3 fed, B/F/TAF + ferrous fumarate simultaneous, N = 14
  AUC(0-t): 74500 ng·h/mL
[1]; BIC plasma C24, mean (%CV), Cohort 1 fasted, B/F/TAF + aluminum/magnesium-containing antacid simultaneous, N = 14
  concentration at 24 h: 430 ng/mL
[1]; BIC plasma C24, mean (%CV), Cohort 1 fasted, B/F/TAF + calcium carbonate simultaneous, N = 14
  concentration at 24 h: 1220 ng/mL
[1]; BIC plasma C24, mean (%CV), Cohort 1 fasted, B/F/TAF + ferrous fumarate simultaneous, N = 14
  concentration at 24 h: 670 ng/mL
[1]; BIC plasma C24, mean (%CV), Cohort 1 fasted, B/F/TAF alone, N = 14
  concentration at 24 h: 1800 ng/mL
[1]; BIC plasma C24, mean (%CV), Cohort 2 fasted, B/F/TAF 2 hours after aluminum/magnesium-containing antacid, N = 13
  concentration at 24 h: 990 ng/mL
[1]; BIC plasma C24, mean (%CV), Cohort 2 fasted, B/F/TAF 2 hours before aluminum/magnesium-containing antacid, N = 13
  concentration at 24 h: 1700 ng/mL
[1]; BIC plasma C24, mean (%CV), Cohort 2 fasted, B/F/TAF alone, N = 14
  concentration at 24 h: 2010 ng/mL
[1]; BIC plasma C24, mean (%CV), Cohort 3, B/F/TAF alone (fasted), N = 14
  concentration at 24 h: 1410 ng/mL
[1]; BIC plasma C24, mean (%CV), Cohort 3 fed, B/F/TAF + aluminum/magnesium-containing antacid simultaneous, N = 14
  concentration at 24 h: 800 ng/mL
[1]; BIC plasma C24, mean (%CV), Cohort 3 fed, B/F/TAF + calcium carbonate simultaneous, N = 14
  concentration at 24 h: 1460 ng/mL
[1]; BIC plasma C24, mean (%CV), Cohort 3 fed, B/F/TAF + ferrous fumarate simultaneous, N = 14
  concentration at 24 h: 1230 ng/mL
[1]; BIC plasma Cmax, mean (%CV), Cohort 1 fasted, B/F/TAF + aluminum/magnesium-containing antacid simultaneous, N = 14
  Cmax: 1200 ng/mL
[1]; BIC plasma Cmax, mean (%CV), Cohort 1 fasted, B/F/TAF + ferrous fumarate simultaneous, N = 14
  Cmax: 1670 ng/mL
[1]; BIC plasma Cmax, mean (%CV), Cohort 2 fasted, B/F/TAF 2 hours after aluminum/magnesium-containing antacid, N = 13
  Cmax: 2740 ng/mL
[1]; BIC plasma Cmax, mean (%CV), Cohort 3 fed, B/F/TAF + aluminum/magnesium-containing antacid simultaneous, N = 14
  Cmax: 2450 ng/mL
[1]; BIC plasma Cmax, mean (%CV), Cohort 3 fed, B/F/TAF + calcium carbonate simultaneous, N = 14
  Cmax: 4110 ng/mL
[1]; Cohort 1 fasted, B/F/TAF + ferrous fumarate simultaneous, N = 14
  Tmax: 3.5 h
[1]; Cohort 3 fed, B/F/TAF + aluminum/magnesium-containing antacid simultaneous, N = 14
  Tmax: 3.5 h
[1]; Cohort 3 fed, B/F/TAF + calcium carbonate simultaneous, N = 14
  Tmax: 3.5 h
[1]; Cohort 3 fed, B/F/TAF + ferrous fumarate simultaneous, N = 14
  Tmax: 4 h
[1]; Cohort 1 fasted, B/F/TAF with aluminum/magnesium-containing antacid simultaneous, N = 14, read-out: AUCinf, test GLSM
  AUC(0-inf): 25200 ng·h/mL
[1]; Cohort 1 fasted, B/F/TAF with aluminum/magnesium-containing antacid simultaneous, N = 14, read-out: C24, test GLSM
  concentration at 24 h: 380 ng/mL
[1]; Cohort 1 fasted, B/F/TAF with aluminum/magnesium-containing antacid simultaneous, N = 14, read-out: Cmax, test GLSM
  Cmax: 1100 ng/mL
[1]; Cohort 1 fasted, B/F/TAF with calcium carbonate simultaneous, N = 14, read-out: AUCinf, test GLSM
  AUC(0-inf): 79100 ng·h/mL
[1]; Cohort 1 fasted, B/F/TAF with calcium carbonate simultaneous, N = 14, read-out: C24, test GLSM
  concentration at 24 h: 1130 ng/mL
[1]; Cohort 1 fasted, B/F/TAF with calcium carbonate simultaneous, N = 14, read-out: Cmax, test GLSM
  Cmax: 3230 ng/mL
[1]; Cohort 1 fasted, B/F/TAF with ferrous fumarate simultaneous, N = 14, read-out: AUCinf, test GLSM
  AUC(0-inf): 44000 ng·h/mL
[1]; Cohort 1 fasted, B/F/TAF with ferrous fumarate simultaneous, N = 14, read-out: C24, test GLSM
  concentration at 24 h: 640 ng/mL
[1]; Cohort 1 fasted, B/F/TAF with ferrous fumarate simultaneous, N = 14, read-out: Cmax, test GLSM
  Cmax: 1610 ng/mL
[1]; Cohort 1 fasted, BIC alone (N = 14), read-out: AUCinf, reference GLSM
  AUC(0-inf): 119000 ng·h/mL
[1]; Cohort 1 fasted, BIC alone (N = 14), read-out: C24, reference GLSM
  concentration at 24 h: 1740 ng/mL
[1]; Cohort 2 fasted, B/F/TAF 2 h after aluminum/magnesium-containing antacid, N = 14, read-out: AUCinf, test GLSM
  AUC(0-inf): 61100 ng·h/mL
[1]; Cohort 2 fasted, B/F/TAF 2 h after aluminum/magnesium-containing antacid, N = 14, read-out: C24, test GLSM
  concentration at 24 h: 900 ng/mL
[1]; Cohort 2 fasted, B/F/TAF 2 h after aluminum/magnesium-containing antacid, N = 14, read-out: Cmax, test GLSM
  Cmax: 2430 ng/mL
[1]; Cohort 2 fasted, B/F/TAF 2 h before aluminum/magnesium-containing antacid, N = 14, read-out: AUCinf, test GLSM
  AUC(0-inf): 111000 ng·h/mL
[1]; Cohort 2 fasted, B/F/TAF 2 h before aluminum/magnesium-containing antacid, N = 14, read-out: C24, test GLSM
  concentration at 24 h: 1650 ng/mL
[1]; Cohort 2 fasted, BIC alone (N = 14), read-out: AUCinf, reference GLSM
  AUC(0-inf): 128000 ng·h/mL
[1]; Cohort 2 fasted, BIC alone (N = 14), read-out: C24, reference GLSM
  concentration at 24 h: 1930 ng/mL
[1]; Cohort 2 fasted, BIC alone (N = 14), read-out: Cmax, reference GLSM
  Cmax: 5840 ng/mL
[1]; Cohort 3, BIC alone (N = 14), fasted, read-out: AUCinf, reference GLSM
  AUC(0-inf): 89900 ng·h/mL
[1]; Cohort 3, BIC alone (N = 14), fasted, read-out: C24, reference GLSM
  concentration at 24 h: 1350 ng/mL
[1]; Cohort 3 fed, B/F/TAF with aluminum/magnesium-containing antacid simultaneous, N = 14, read-out: AUCinf, test GLSM
  AUC(0-inf): 47900 ng·h/mL
[1]; Cohort 3 fed, B/F/TAF with aluminum/magnesium-containing antacid simultaneous, N = 14, read-out: C24, test GLSM
  concentration at 24 h: 750 ng/mL
[1]; Cohort 3 fed, B/F/TAF with aluminum/magnesium-containing antacid simultaneous, N = 14, read-out: Cmax, test GLSM
  Cmax: 2340 ng/mL
[1]; Cohort 3 fed, B/F/TAF with calcium carbonate simultaneous, N = 14, read-out: AUCinf, test GLSM
  AUC(0-inf): 92900 ng·h/mL
[1]; Cohort 3 fed, B/F/TAF with calcium carbonate simultaneous, N = 14, read-out: C24, test GLSM
  concentration at 24 h: 1430 ng/mL
[1]; Cohort 3 fed, B/F/TAF with calcium carbonate simultaneous, N = 14, read-out: Cmax, test GLSM
  Cmax: 4070 ng/mL
[1]; Cohort 3 fed, B/F/TAF with ferrous fumarate simultaneous, N = 14, read-out: AUCinf, test GLSM
  AUC(0-inf): 75400 ng·h/mL
[1]; Cohort 3 fed, B/F/TAF with ferrous fumarate simultaneous, N = 14, read-out: C24, test GLSM
  concentration at 24 h: 1200 ng/mL
[1]; Cohort 3 fed, B/F/TAF with ferrous fumarate simultaneous, N = 14, read-out: Cmax, test GLSM
  Cmax: 3410 ng/mL
[2]
  dissociation half-life: ~ 163 hours
